Test results from patent US12441730B2, “PRMT5 inhibitors” (Merck Sharp & Dohme LLC, priority 2019, dated 2025).
Like-named read-outs stand apart in the source and are kept apart here.

Assays:
[1] = target: T1, Full-length (FL)-PRMT5-MEP50 enzyme complex (Homo sapiens, UniProt O14744); test: PRMT5-MEP50 Enzyme Methylation Assay (Version A); format: biochemical
T1 construct: Full-length (FL)-PRMT5-MEP50 enzyme complex (recombinant proteins from baculovirus-transfected Sf21 cells: FL-PRMT5; MW=73837 kDa and FL-MEP50; MW=38614); made in house; host or cells: baculovirus-transfected Sf21 cells
T1 sequence (O14744 whole entry): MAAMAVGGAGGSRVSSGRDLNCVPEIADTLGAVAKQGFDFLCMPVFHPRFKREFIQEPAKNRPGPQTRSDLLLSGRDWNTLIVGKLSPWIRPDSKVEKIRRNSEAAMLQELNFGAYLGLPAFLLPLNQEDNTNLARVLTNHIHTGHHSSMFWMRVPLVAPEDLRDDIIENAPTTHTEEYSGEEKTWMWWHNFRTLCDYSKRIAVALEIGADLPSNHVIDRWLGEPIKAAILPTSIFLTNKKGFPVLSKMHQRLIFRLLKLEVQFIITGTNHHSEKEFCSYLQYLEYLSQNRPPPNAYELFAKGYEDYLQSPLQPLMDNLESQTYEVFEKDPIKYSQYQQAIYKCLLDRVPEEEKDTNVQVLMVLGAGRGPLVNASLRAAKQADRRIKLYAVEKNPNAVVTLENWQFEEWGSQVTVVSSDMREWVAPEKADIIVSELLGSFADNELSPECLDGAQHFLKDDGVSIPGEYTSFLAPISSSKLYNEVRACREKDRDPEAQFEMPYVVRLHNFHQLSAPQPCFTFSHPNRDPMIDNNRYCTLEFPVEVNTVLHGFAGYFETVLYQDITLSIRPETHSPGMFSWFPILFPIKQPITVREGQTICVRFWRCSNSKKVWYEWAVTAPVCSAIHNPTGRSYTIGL
T1 sequence (Q9BQA1 whole entry partner): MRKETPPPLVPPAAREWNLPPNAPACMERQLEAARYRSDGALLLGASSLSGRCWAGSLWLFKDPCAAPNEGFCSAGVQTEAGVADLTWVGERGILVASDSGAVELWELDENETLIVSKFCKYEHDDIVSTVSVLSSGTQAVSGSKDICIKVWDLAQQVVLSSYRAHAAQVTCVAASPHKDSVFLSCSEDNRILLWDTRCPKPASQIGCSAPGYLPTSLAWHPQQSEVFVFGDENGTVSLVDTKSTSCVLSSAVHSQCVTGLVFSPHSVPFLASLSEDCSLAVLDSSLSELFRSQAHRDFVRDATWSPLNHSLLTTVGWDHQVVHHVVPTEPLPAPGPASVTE
Experimental: PRMT5-MEP50 Enzyme Methylation Assay (Version A)
PRMT5-MEP50 biochemical assay is a direct measurement of the methylation activity of the enzyme complex on a short peptide substrate derived from the N-terminus of H4 histone. Methylation experiment was performed with recombinant PRMT5-MEP50 protein complex. The assessment of inhibitory effect of small molecules was measured by the effectiveness of the compounds to inhibit this reaction (EC50).
In this assay, the potency (EC50) of each compound was determined from a twenty-point (1:2 serial dilution; top compound concentration of 100000 nM) titration curve using the following outlined procedure. To each well of a white ProxiPlus 384 well-plate, 100 nL of compound (1% DMSO in final assay volume of 10 μL) was dispensed, followed by the addition of 8 μL of 1× assay buffer (50 mM Bicine pH 8.0, 1 mM DTT, 0.004% Tween20, 0.01% BSA) containing 1.25 nM of Full-length (FL)-PRMT5-MEP50 enzyme complex (recombinant proteins from baculovirus-transfected Sf21 cells: FL-PRMT5; MW=[…] and FL-MEP50; MW=38614) and 1 μL of 150 μM S-(5′-Adenosyl)-L-Methionine Chloride (SAM). A plate were sealed and placed in a 37° C. humidified chamber for a 60 minutes pre-incubation with compound. Subsequently, each reaction was initiated by the addition of 1 μL 1× assay buffer containing 750 nM biotinylated H4R3(Me1) peptide. The final reaction in each well of 10 μL consists of 1.0 nM PRMT5-MEP50, 75 nM biotinylated-peptide, and 15 μM SAM. Methylation reactions were allowed to proceed for 150 minutes in a sealed plate at 37° C. Reactions were immediately quenched by the addition of 1 μL of 5% formic acid. A plate was then frozen and shipped to SAMDI™ Tech Inc. to determine the percent conversion from H4R3(Me1) to H4R3(Me2). Dose-response curves were generated by plotting percent effect (% product conversion; Y-axis) vs. Log 10 compound concentrations (X-axis). EC50 values were determined by non-linear regression according to models for either sigmoidal (4 parameters) or biphasic (7 parameters) dose-response curves.

[2] = system: symmetric dimethylation of arginine (SDMA) of PRMT5 substrates in MCF-7 cells; test: PRMT5 Cell Target Engagement (TE) Assay; format: cell-based; conditions: 3 days treatment, SDMA high content imaging
From the text: PRMT5 Cell Target Engagement (TE) Assay
The PRMT5 TE assay is a biomarker assay for identifying compounds that inhibit symmetric dimethylation of arginine (SDMA) of PRMT5 substrates. The following substrates have been reported for PRMT5: histone H2A and H4 R3, Histone H3 R2, Histone H3 R8, spliceosome Sm proteins, ribosomal protein RPS10, p53, FEN1, nucleoplasmin, nucleolin, EGFR and EBNA. The assay focuses on detecting symmetrically dimethylated nuclear proteins using high content imaging technology. Detection of the expression of symmetrically dimethylated nuclear proteins is through a mixture of primary rabbit monoclonal antibodies to SDMA (CST 13222), which in turn recognized by an Alexafluor 488 dye-conjugated anti-rabbit IgG secondary antibody. The IN Cell Analyzer 2200 or Opera-Phenix measures nuclear Alexafluor 488 fluorescent dye intensity that is directly related to the level of expression of symmetrically dimethylated nuclear proteins at the single cell level. Nuclear AF488 dye intensities are compared to the mean value for DMSO treated cells (MIN) to report percent of inhibition for each compound-treated well.
In this assay, the cell potency (EC50) of each compound was determined from a ten point (1:3 serial dilution; top compound concentration of 10000 nM) titration curve using the following outlined procedure. Each well of a BD falcon collagen coated black/clear bottom 384-well plate was seeded with 4000 MCF-7 cells in 30 μl media and allowed to attach for 5 h. Media is ATCC-formulated Eagle's Minimum Essential Medium, Catalog No. 30-2003. To make the complete growth medium, the following components were added to the base medium: 0.01 mg/mL human recombinant insulin; fetal bovine serum to a final concentration of 10%. Additional 30 μl of media containing 2× compounds were added to each well. Cells were treated for 3 days in 37° C. CO2 incubator. On day 3, cells were fixed with Cytofix, permeabilized with 0.4% Triton-X-100/Cytofix, and washed with D-PBS without Ca/Mg. Cells were blocked with Licor Odessey blocking reagent for 1 h at room temperature, followed by incubation with anti-SDMA (1:1000) antibody at 4° C. overnight. 1° antibody was removed, followed by three washings with DPBS without Ca/Mg and 0.05% Tween20. Hoechst (5 μg/mL), Cell Mask deep stain (1:2000) and Alexa488-conjugated goat anti-rabbit IgG (2 μg/mL) was added for 1 h at room temperature. A final washing step (three washes) was performed before sealing plate for imaging on In Cell Analyzer 2200 or Opera-Phenix. Images from analyzer were uploaded to Columbus (at WP or BOS) for image analysis. IC50 values were determined by 4 parameters robust fit of percent fluorescence units vs. (Log10) compound concentrations.

[3] = second value of 7 parameter biphasic fit, read-out: Enzyme Methylation Assay Version A (EC50 2)
[4] = single EC50 = 4 parameter single site sigmoidal fit, EC50 1 = first value of 7 parameter biphasic fit, read-out: Enzyme Methylation Assay Version A (EC50 or EC50 1)

Structure (SMILES) | EC50 [1, 3] | EC50 [1, 4] | EC50 ([2]; Homo sapiens, MCF7, 72 h) | EC50 [2]
O=C(c1cn2cc(Br)nc(OCC3CCCO3)c2n1)N1CC[C@]2(Cc3ccccc3CN2)[C@H](O)C1 (single isomer, unassigned) [Example 100, (6-bromo-8-(((S or R)-tetrahydrofuran-2-yl)methoxy)imidazo[1,2-a]pyrazin-2-yl)((3R,3′R)-3′-hydroxy-1,4-dihydro-2H-spiro[isoquinoline-3,4′-piperidin]-1′-yl)methanone] | 0.0606 µM | 0.000266 µM | 0.00413 µM | 
CC(O)c1cc(Br)cn2cc(C(=O)N3CC[C@]4(Cc5ccccc5CN4)[C@H](O)C3)nc12 (single isomer, unassigned) [Example 32, (6-bromo-8-((R or S)-1-hydroxyethyl)imidazo[1,2-a]pyridin-2-yl)((3R,3’R)-3′-hydroxy-1,4-dihydro-2H-spiro[isoquinoline-3,4′-piperidin]-1′-yl)methanone] | 0.282 µM | 0.000844 µM | 0.00515 µM | 
O=C(c1cnc2ncc(Cl)cn12)N1CC[C@]2(Cc3ccccc3CN2)[C@H](O)C1 [Example 56, (6-chloroimidazo[1,2-a]pyrimidin-3-yl)[(3R,3′R)-3′-hydroxy-1,4-dihydro-1′H,2H-spiro[isoquinoline-3,4′-piperidin]-1′-yl]methanone] | 10 µM | 0.0124 µM | 0.0821 µM | 
O=C(c1cn2cccc(F)c2n1)N1CC[C@]2(Cc3ccccc3CN2)[C@H](O)C1 [Example 202, (8-fluoroimidazo[1,2-a]pyridin-2-yl)[(3R,3′R)-3′-hydroxy-1,4-dihydro-1′H,2H-spiro[isoquinoline-3,4′-piperidin]-1′-yl]methanone] | 16.2 µM | 0.0263 µM | 0.795 µM | 
Cc1ccc(C(=O)N2CC[C@]3(Cc4ccccc4CN3)[C@H](O)C2)c(Br)n1 [Example 197, (2-bromo-6-methyl-3-pyridinyl)[(3R,3′R)-3′-hydroxy-1,4-dihydro-1′H,2H-spiro[isoquinoline-3,4′-piperidin]-1′-yl]methanone] | 16 µM | 0.0142 µM | 1.31 µM | 
COCC1CC(C)Cn2cc(C(=O)N3CC[C@]4(Cc5ccccc5CN4)[C@H](O)C3)nc21 (single isomer, unassigned) [Example 159] | 22.4 µM | 0.0617 µM |  | 0.527 µM
CNc1nc(C)ccc1C(=O)N1CC[C@]2(Cc3ccccc3CN2)[C@H](O)C1 [Example 198, [(3R,3′R)-3′-hydroxy-1,4-dihydro-1′H,2H-spiro[isoquinoline-3,4′-piperidin]-1′-yl][6-methyl-2-(methylamino)-3-pyridinyl]methanone] | 16 µM | 0.0193 µM | 1.07 µM | 
O=C(c1cn2cc(Cl)ccc2n1)N1CC[C@]2(Cc3ccccc3CN2)[C@H](O)C1 [Example 37, (6-chloroimidazo[1,2-a]pyridin-2-yl)((3R,3’R)-3′-hydroxy-1,4-dihydro-2H-spiro[isoquinoline-3,4′-piperidin]-1′-yl)methanone] | 0.251 µM | 0.000757 µM | 0.00161 µM | 

Further molecules by falling EC50 [1, 3], results first:

EC50 [1, 3] | EC50 [1, 4] | EC50 ([2]; Homo sapiens, MCF7, 72 h) | EC50 [2] | Structure (SMILES)
66.1 µM | 0.0302 µM | 3.5 µM |  | O=C(c1ccnc2ncnn12)N1CC[C@]2(Cc3ccccc3CN2)[C@H](O)C1 [Example 189, [1,2,4]triazolo[1,5-a]pyrimidin-7-yl((3R,3′R)-3′-hydroxy-1,4-dihydro-2H-spiro[isoquinoline-3,4′-piperidin]-1′-yl)methanone]
55 µM | 0.0631 µM | 2.19 µM |  | O=C(c1ccn2c(Br)cnc2n1)N1CC[C@]2(Cc3ccccc3CN2)[C@H](O)C1 [Example 57, (3-bromoimidazo[1,2-a]pyrimidin-7-yl)[(3R,3′R)-3′-hydroxy-1,4-dihydro-1′H,2H-spiro[isoquinoline-3,4′-piperidin]-1′-yl]methanone]
26.9 µM | 0.0759 µM | 4.28 µM |  | O=C(c1ccnc(-n2cnnn2)c1)N1CC[C@]2(Cc3ccccc3CN2)[C@H](O)C1 [Example 187, (2-(1H-tetrazol-1-yl)pyridin-4-yl)((3R,3′R)-3′-hydroxy-1,4-dihydro-2H-spiro[isoquinoline-3,4′-piperidin]-1′-yl)methanone]
9.48 µM | 0.00952 µM |  | 0.289 µM | O=C(c1cn2c(n1)C(C1CCOC1)CC(C(F)(F)F)C2)N1CC[C@]2(Cc3ccccc3CN2)[C@H](O)C1 (single isomer, unassigned) [Example 160, ((3R,3′R)-3′-hydroxy-1,4-dihydro-2H-spiro[isoquinoline-3,4′-piperidin]-1′-yl)((6S,8S or 6R,8R)-8-((S or R)-tetrahydrofuran-3-yl)-6-(trifluoromethyl)-5,6,7,8-tetrahydroimidazo[1,2-a]pyridin-2-yl)methanone]
2.42 µM | 0.00849 µM | 3.32 µM |  | Cc1ccnc2nc(C(=O)N3CC[C@]4(Cc5ccccc5CN4)[C@H](O)C3)cn12 [Example 124, [(3R,3′R)-3′-hydroxy-1,4-dihydro-1′H,2H-spiro[isoquinoline-3,4′-piperidin]-1′-yl](5-methylimidazo[1,2-a]pyrimidin-2-yl)methanone]
1.06 µM | 0.00117 µM | 0.0996 µM |  | N#CC1(c2cc(Br)cn3cc(C(=O)N4CC[C@]5(Cc6ccccc6CN5)[C@H](O)C4)nc23)CC1 [Example 68, 1-(6-bromo-2-{[(3R,3′R)-3′-hydroxy-1,4-dihydro-1′H,2H-spiro[isoquinoline-3,4′-piperidin]-1′-yl]carbonyl}imidazo[1,2-a]pyridin-8-yl)cyclopropanecarbonitrile]
0.501 µM | 0.000241 µM | 0.0712 µM |  | Cc1ccc(C(=O)N2CC[C@]3(Cc4ccccc4CN3)[C@H](O)C2)c(-n2nccn2)n1 [Example 186, ((3R,3′R)-3′-hydroxy-1,4-dihydro-2H-spiro[isoquinoline-3,4′-piperidin]-1′-yl)(6-methyl-2-(2H-1,2,3-triazol-2-yl)pyridin-3-yl)methanone]
0.271 µM | 0.000703 µM | 0.00675 µM |  | COCc1cc(Cl)cn2cc(C(=O)N3CC[C@]4(Cc5ccccc5CN4)[C@H](O)C3)nc12 [Example 112, (6-chloro-8-(methoxymethyl)imidazo[1,2-a]pyridin-2-yl)((3R,3′R)-3′-hydroxy-1,4-dihydro-2H-spiro[isoquinoline-3,4′-piperidin]-1′-yl)methanone]
